For eight compounds, IC50 results are on record in patent US20200216416A1, “QUINOLINE COMPOUNDS AS INHIBITORS OF TAM AND MET KINASES” (Array BioPharma Inc., priority 2019, published 2020).

As usually defined, the IC50 is the point on the concentration scale where inhibition reaches its midpoint.

Test [1] addresses T1, human MET kinase D1228H (Homo sapiens, UniProt P08581, D1228H).
T1 construct: GST-tagged recombinant human MET kinase domain; purchased Signal Chem
As to the kind of experiment: c-Met Enzyme Assay, D1228H mutant. It counts as binding. The conditions noted are these: averaged IC50; D1228H 2 nM; 60-minute incubation at 22° C.; read-out: D1228 H IC50. The gist of the method:
(§1)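 LanthaScreen Eu TR-FRET binding: GST-tagged recombinant MET kinase domain incubated with compound, 50 nM Alexa-Fluor Tracer 236 and 2 nM Eu-anti-GST in 25 mM HEPES pH 7.4, 10 mM MgCl2, 1 mM DTT, 2% DMSO, 60 min at 22 °C. Ratiometric emission gave percent of control; IC50 from 4-parameter fit at 50 POC.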

In test [2] the target is T2, human MET kinase D1228N (Homo sapiens, UniProt P08581, D1228N).
T2 construct: GST-tagged recombinant human MET kinase domain; purchased Signal Chem
T2 sequence (P08581 1078-1345 D1228N): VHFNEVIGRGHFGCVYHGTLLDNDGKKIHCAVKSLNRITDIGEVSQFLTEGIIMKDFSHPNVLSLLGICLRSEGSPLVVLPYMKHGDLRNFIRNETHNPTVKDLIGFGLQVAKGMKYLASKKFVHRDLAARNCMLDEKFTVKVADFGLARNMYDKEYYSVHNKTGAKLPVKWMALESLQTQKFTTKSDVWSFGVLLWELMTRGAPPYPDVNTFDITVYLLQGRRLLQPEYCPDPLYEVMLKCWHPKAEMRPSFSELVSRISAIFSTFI
As to the kind of experiment: c-Met Enzyme Assay, D1228N mutant. The format is binding. The conditions noted are these: averaged IC50; D1228N 2 nM; 60-minute incubation at 22° C.; read-out: D1228 N IC50. The gist of the method: as §1

Test [3] concerns the target T3, human MET kinase Y1230H (Homo sapiens, UniProt P08581, Y1230H).
T3 construct: GST-tagged recombinant human MET kinase domain; purchased Signal Chem
The experiment in a line: c-Met Enzyme Assay, Y1230H mutant. The format is binding. The conditions noted are these: averaged IC50; Y1230H 5 nM; 60-minute incubation at 22° C.; read-out: Y1230 H IC50. A digest of the protocol: as §1

Test [4] addresses T4, His-tagged recombinant human MER cytoplasmic domain (Homo sapiens, UniProt Q12866).
T4 construct: His-tagged recombinant human MER cytoplasmic domain
T4 sequence (Q12866 527-999 limits assumed): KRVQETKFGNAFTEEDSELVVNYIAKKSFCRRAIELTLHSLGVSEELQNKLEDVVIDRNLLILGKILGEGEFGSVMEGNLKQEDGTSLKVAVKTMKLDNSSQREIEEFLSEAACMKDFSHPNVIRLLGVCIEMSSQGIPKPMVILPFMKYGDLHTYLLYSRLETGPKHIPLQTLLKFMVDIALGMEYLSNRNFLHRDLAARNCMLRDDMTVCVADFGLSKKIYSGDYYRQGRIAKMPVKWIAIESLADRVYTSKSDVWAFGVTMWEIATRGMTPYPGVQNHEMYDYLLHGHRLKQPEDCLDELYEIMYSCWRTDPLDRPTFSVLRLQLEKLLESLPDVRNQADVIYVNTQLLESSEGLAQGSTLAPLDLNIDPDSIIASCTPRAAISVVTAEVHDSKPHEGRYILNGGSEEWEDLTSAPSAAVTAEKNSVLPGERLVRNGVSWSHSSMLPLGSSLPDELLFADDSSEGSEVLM
The experiment in a line: MER Enzyme Assay (LanthaScreen Eu Kinase Binding). The conditions noted are these: averaged IC50; MER 5 nM; 60-minute incubation at 22° C.; TR-FRET. The gist of the method:
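TR-FRET binding: 5 nM His-MER cytoplasmic domain with 20 nM Tracer 236, 2 nM biotin-anti-His and 2 nM Eu-streptavidin in pH 7.4 HEPES, 10 mM MgCl2, 2% DMSO, with threefold compound dilutions, 60 min at 22 °C. Percent of control was fit to a 4-parameter logistic, and IC50 was taken at 50 POC.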

Test [5] addresses T5, human MET kinase Y1230S (Homo sapiens, UniProt P08581, Y1230S).
T5 construct: GST-tagged recombinant human MET kinase domain; purchased Signal Chem
As to the kind of experiment: c-Met Enzyme Assay, Y1230S mutant. The conditions noted are these: averaged IC50; Y1230S 8 nM; 60-minute incubation at 22° C.; read-out: Y1230 S IC50. It counts as binding. The gist of the method: as §1

For test [6], the target named is T6, His-tagged recombinant human AXL cytoplasmic domain (Homo sapiens, UniProt P30530).
T6 construct: His-tagged recombinant human AXL cytoplasmic domain
T6 sequence (P30530 473-894 limits assumed): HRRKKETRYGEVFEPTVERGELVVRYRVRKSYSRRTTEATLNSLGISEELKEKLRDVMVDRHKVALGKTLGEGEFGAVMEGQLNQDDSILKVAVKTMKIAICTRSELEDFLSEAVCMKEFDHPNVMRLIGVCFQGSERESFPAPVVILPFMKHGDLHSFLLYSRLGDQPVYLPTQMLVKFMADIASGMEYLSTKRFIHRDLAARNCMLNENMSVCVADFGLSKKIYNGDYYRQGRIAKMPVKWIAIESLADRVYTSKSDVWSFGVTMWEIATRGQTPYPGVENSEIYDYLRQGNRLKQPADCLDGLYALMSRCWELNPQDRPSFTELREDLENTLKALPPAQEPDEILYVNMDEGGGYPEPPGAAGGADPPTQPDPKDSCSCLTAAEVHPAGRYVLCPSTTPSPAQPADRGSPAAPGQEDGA
The experiment in a line: AXL Enzyme Assay (LanthaScreen Eu Kinase Binding). As to conditions: averaged IC50; 60-minute incubation at 22° C.; TR-FRET. A digest of the protocol: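 TR-FRET binding-displacement format: 20 nM Alexa Fluor Tracer 236, 2 nM biotin-anti-His and 2 nM Eu-streptavidin in 25 mM HEPES pH 7.4, 10 mM MgCl2, 0.01% Triton X-100, 2% DMSO. After 60 min at 22 °C, ratiometric percent of control was fitted to a 4-parameter logistic curve, IC50 taken at 50 POC.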
On the technique in general: TR-FRET usually uses a lanthanide donor and a delayed reading to cut background.

The target of test [7] is T7, MET (wt) GST-tagged recombinant human MET kinase domain (Homo sapiens, UniProt P08581).
T7 construct: GST-tagged recombinant human MET kinase domain; purchased Signal Chem
T7 sequence (P08581 1078-1345 limits assumed): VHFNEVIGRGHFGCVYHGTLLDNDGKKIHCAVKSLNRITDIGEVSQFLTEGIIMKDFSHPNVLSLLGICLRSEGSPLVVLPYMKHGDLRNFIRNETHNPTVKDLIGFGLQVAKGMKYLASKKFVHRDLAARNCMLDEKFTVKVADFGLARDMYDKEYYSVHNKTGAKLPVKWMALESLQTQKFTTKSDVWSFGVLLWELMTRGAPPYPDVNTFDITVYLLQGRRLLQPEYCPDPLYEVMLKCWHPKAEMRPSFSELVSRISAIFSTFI
The experiment in a line: c-Met Enzyme Assay, wild type (LanthaScreen Eu Kinase Binding). The conditions noted are these: averaged IC50; MET (wt) 10 nM; 60-minute incubation at 22° C.; read-out: SigChem WT IC50. The gist of the method:
as §1

T3 sequence (P08581 1078-1345 Y1230H): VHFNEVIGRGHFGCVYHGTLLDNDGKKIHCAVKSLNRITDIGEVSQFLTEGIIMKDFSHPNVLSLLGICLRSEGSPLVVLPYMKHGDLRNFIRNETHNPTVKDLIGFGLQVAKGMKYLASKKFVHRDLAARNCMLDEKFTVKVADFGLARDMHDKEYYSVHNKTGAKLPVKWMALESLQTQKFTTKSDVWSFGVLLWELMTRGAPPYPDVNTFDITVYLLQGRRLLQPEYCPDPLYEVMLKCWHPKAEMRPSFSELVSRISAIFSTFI
T5 sequence (P08581 1078-1345 Y1230S): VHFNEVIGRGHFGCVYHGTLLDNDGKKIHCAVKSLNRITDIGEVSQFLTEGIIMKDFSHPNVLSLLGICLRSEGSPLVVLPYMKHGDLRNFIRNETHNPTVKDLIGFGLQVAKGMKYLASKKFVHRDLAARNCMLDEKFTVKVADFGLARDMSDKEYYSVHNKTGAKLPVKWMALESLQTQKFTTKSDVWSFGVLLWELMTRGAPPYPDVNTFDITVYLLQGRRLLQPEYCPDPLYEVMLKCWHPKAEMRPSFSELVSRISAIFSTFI
T1 sequence (P08581 1078-1345 D1228H): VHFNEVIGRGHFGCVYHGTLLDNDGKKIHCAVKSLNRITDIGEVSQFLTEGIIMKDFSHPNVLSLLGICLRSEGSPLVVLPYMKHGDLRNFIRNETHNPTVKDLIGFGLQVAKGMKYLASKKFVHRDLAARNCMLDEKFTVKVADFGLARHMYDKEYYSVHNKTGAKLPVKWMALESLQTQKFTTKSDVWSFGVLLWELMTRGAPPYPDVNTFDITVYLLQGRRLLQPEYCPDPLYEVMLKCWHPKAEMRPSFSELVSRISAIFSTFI

For `COc1cc2nccc(Oc3ccc(NC(=O)c4cn(CCN(C)C)cc(-c5ccc(Cl)cc5)c4=O)nc3)c2cc1OC` [Example 42], the IC50 was found to be 2.4 nM in test [1]; 7 nM in test [2]; 6.7 nM in test [3]; 9 nM in test [4]; 2.7 nM in test [5]; 2 nM in test [6]. Also, in test [7], the IC50 was 3.2 nM.

Take `COc1cc2nccc(Oc3ccc(NC(=O)c4cn(CCN(C)C)cc(-c5ccc(F)c(F)c5)c4=O)nc3)c2cc1OC` [Example 43, 5-(3,4-difluorophenyl)-N-(5-((6,7-dimethoxyquinolin-4-yl)oxy)pyridin-2-yl)-1-]: the IC50 in test [1] was 1.6 nM; in test [2], 2.7 nM; in test [3] it was 2.9 nM; in test [4], 5 nM; in test [5] it was 1.1 nM; in test [6] it was 2 nM. Besides, the IC50 in test [7] was determined as 1.4 nM.

With `COc1cc2nccc(Oc3ccc(NC(=O)c4cn(CCN(C)C)cc(-c5ccc(F)cc5F)c4=O)nc3)c2cc1OC` [Example 44, 5-(2,4-difluorophenyl)-N-(5-((6,7-dimethoxyquinolin-4-yl)oxy)pyridin-2-yl)-1-(2-(dimethylamino)ethyl)-4-oxo-1,4-dihydropyridine-3-carboxamide], the IC50 in test [1] turned out to be 1.9 nM; in test [2], 3.2 nM; in test [3] it was 2.7 nM; in test [4], 3 nM; in test [5] it was 2.1 nM; in test [6] it was 2 nM. In test [7], the IC50 was determined as 2.2 nM.

As for `COc1cc2nccc(Oc3ccc(NC(=O)c4cn(C)c(C(C)C)c(-c5ccc(F)cc5)c4=O)nc3)c2cc1OC` [Example 45, N-(5-((6,7-dimethoxyquinolin-4-yl)oxy)pyridin-2-yl)-5-(4-fluorophenyl)-6-isopropyl-1-methyl-4-oxo-1,4-dihydropyridine-3-carboxamide], the IC50 amounted to 11.1 nM in test [1]; 13.4 nM in test [2]; 9.9 nM in test [3]; 27 nM in test [4]; 6.2 nM in test [5]; 5 nM in test [6]. For the same compound, in test [7], the IC50 worked out at 4.4 nM.

Regarding `COc1cc2nccc(Oc3ccc(NC(=O)c4cn(CCN(C)C)cc(-c5ccc(F)cc5)c4=O)nc3)c2cc1OC` [Example 46], the half-inhibitory concentration (IC50) in test [1] stood at 3.2 nM; in test [2], 5.4 nM; in test [3], 3.4 nM; in test [4] it was 2 nM; in test [5], 1.7 nM; in test [6], 1 nM. Besides, the IC50 in test [7] turned out to be 3 nM.

For `COc1ccc2nccc(Oc3ccc(NC(=O)c4cn(CCN(C)C)cc(-c5ccc(F)cc5)c4=O)nc3)c2c1` [Example 47], the IC50 in test [1] came out at 31.1 nM; in test [2], 29.7 nM; in test [3], 29.4 nM; in test [4], 7 nM; in test [5], 18.9 nM; in test [6], 1 nM. Besides, in test [7], the IC50 was found to be 10.2 nM.

With `COc1cc2c(Oc3ccc(NC(=O)c4cn(C(C)C)c(C)c(-c5ccc(F)cc5)c4=O)nc3)ccnc2cc1F` [Example 48, N-(5-((7-fluoro-6-methoxyquinolin-4yl)oxy)pyridin-2-yl)-5-(4-fluorophenyl)-1-isopropyl-6-methyl-4-oxo-1,4-dihydropyridine-3-carboxamide], the IC50 in test [1] was determined as 11.9 nM; in test [2], 14.6 nM; in test [3], 15.8 nM; in test [4] it was 5 nM; in test [5], 8.8 nM; in test [6] it was 2 nM. The IC50 in test [7] came to 6.8 nM.

For `COc1cc2c(Oc3ccc(NC(=O)c4cn(C(C)C)cc(-c5ccc(F)cc5)c4=O)nc3)ccnc2cc1F` [Example 49, N-(5-((7-fluoro-6-methoxyquinolin-4yl)oxy)pyridin-2-yl)-5-(4-fluorophenyl)-1-isopropyl-4-oxo-1,4-dihydropyridine-3-carboxamide], the IC50 in test [1] came to 64.3 nM; in test [2] it was 130 nM; in test [3], 112 nM; in test [4], 5 nM; in test [5] it was 67.1 nM; in test [6], 1 nM. Besides, the IC50 in test [7] stood at 27 nM.
